From ChEMBL document CHEMBL4342517, “Design, Synthesis, and Mechanism Study of Benzenesulfonamide-Containing Phenylalanine Derivatives as Novel HIV-1 Capsid Inhibitors with Improved Antiviral Activities” (J Med Chem, 2020)
pEC50, pIC50: −log10 of the molar value. Active and inactive are the calls of the source. No cut-off for these calls is given here.

How the values were obtained:
[1] = Stability in human plasma assessed as compound remaining level at 2 uM incubated for 120 mins at 37 degC by LC-MS/MS analysis; format: ADME, cell-free; settings: 2 h
[2] = molecular target: Structural capsid protein (Human immunodeficiency virus 1) (UniProt Q76129); experiment: Inhibition of HIV1 NL4-3 capsid protein assembly at 50 uM measured every 1 min for 19 mins
[3] = system: Human immunodeficiency virus 1; experiment: Antiviral activity against HIV1 Env-pseudotyped virus in human U87.CD4.CCR5 target cells assessed as reduction in viral infection at late stage; format: functional, organism-based; settings: Human immunodeficiency virus 1, U87/CD4/CCR5
[4] = system: Human immunodeficiency virus 1; experiment: Antiviral activity against HIV1 Env-pseudotyped virus in human U87.CD4.CCR5 target cells assessed as reduction in viral infection at early stage; format: functional, organism-based; settings: Human immunodeficiency virus 1, U87/CD4/CCR5
[5] = system: TZM; experiment: Cytotoxicity in uninfected human TZM-bl assessed as reduction in cell viability incubated for 1 day by Cyto-tox-Glo cytotoxicity assay; format: cell-based; settings: 24 h
[6] = system: Human immunodeficiency virus 1; experiment: Antiviral activity against HIV1 NL4-3 infected in human TZM-bl cells assessed as reduction in virus induced cytopathogenicity incubated for 1 day by luciferase reporter gene assay; format: functional, organism-based; settings: Human immunodeficiency virus 1, NL4-3, TZM-bl, 24 h
[7] = Cmax in Sprague-Dawley rat at 20 mg/kg, po measured during 5 mins to 12 hrs by LC-MS analysis; format: ADME, organism-based; parameters: dose 20 mg/kg, route oral; settings: in vivo
[8] = Half life in Sprague-Dawley rat at 20 mg/kg, po measured during 5 mins to 12 hrs by LC-MS analysis; settings: in vivo
[9] = AUC (0 to infinity) in Sprague-Dawley rat at 20 mg/kg, po measured during 5 mins to 12 hrs by LC-MS analysis; format: ADME, organism-based; parameters: dose 20 mg/kg, time infinity, route oral; settings: in vivo
[10] = Mean residence time (0 to infinity) in Sprague-Dawley rat at 20 mg/kg, po measured during 5 mins to 12 hrs by LC-MS analysis; settings: in vivo
[11] = Oral bioavailability in Sprague-Dawley rat at 20 mg/kg measured during 5 mins to 12 hrs by LC-MS analysis; format: ADME, organism-based; settings: in vivo
[12] = Half life in Sprague-Dawley rat at 2 mg/kg, iv measured during 5 mins to 12 hrs by LC-MS analysis; settings: in vivo
[13] = Cmax in Sprague-Dawley rat at 2 mg/kg, iv measured during 5 mins to 12 hrs by LC-MS analysis; format: ADME, organism-based; parameters: dose 2 mg/kg, route intravenous; settings: in vivo
[14] = AUC (0 to t) in Sprague-Dawley rat at 2 mg/kg, iv measured during 5 mins to 12 hrs by LC-MS analysis; format: ADME, organism-based; parameters: dose 2 mg/kg, time 0.083-12 hr, route intravenous; settings: in vivo
[15] = AUC (0 to infinity) in Sprague-Dawley rat at 2 mg/kg, iv measured during 5 mins to 12 hrs by LC-MS analysis; format: ADME, organism-based; parameters: dose 2 mg/kg, time infinity, route intravenous; settings: in vivo
[16] = Volume of distribution in Sprague-Dawley rat at 2 mg/kg, iv measured during 5 mins to 12 hrs by LC-MS analysis; format: ADME, organism-based; settings: in vivo
[17] = Clearance in Sprague-Dawley rat at 2 mg/kg, iv measured during 5 mins to 12 hrs by LC-MS analysis; format: ADME, organism-based; settings: in vivo
[18] = Mean residence time (0 to infinity) in Sprague-Dawley rat at 2 mg/kg, iv measured during 5 mins to 12 hrs by LC-MS analysis; settings: in vivo
[19] = Acute toxicity in Kunming mouse assessed as induction of animal death at 1000 mg/kg, ig administered as single dose; format: organism-based; settings: in vivo, po
[20] = Acute toxicity in Kunming mouse assessed as induction of abnormal behaviors by measuring lethargy at 1000 mg/kg, ig administered as single dose; format: organism-based; settings: in vivo, po
[21] = Acute toxicity in Kunming mouse assessed as induction of abnormal behaviors by measuring clonic convulsion at 1000 mg/kg, ig administered as single dose; format: organism-based; settings: in vivo, po
[22] = Acute toxicity in Kunming mouse assessed as induction of abnormal behaviors by measuring anorexia at 1000 mg/kg, ig administered as single dose; format: organism-based; settings: in vivo, po
[23] = Acute toxicity in Kunming mouse assessed as induction of abnormal behaviors by measuring ruffled fur at 1000 mg/kg, ig administered as single dose; format: organism-based; settings: in vivo, po
[24] = Acute toxicity in Kunming mouse assessed as increase in body weight at 1000 mg/kg, ig administered as single dose; format: organism-based; settings: in vivo, po
[25] = system: Human immunodeficiency virus 1; experiment: Antiviral activity against HIV1 3B infected in human MT4 cells assessed as reduction in virus-induced cell death incubated for 5 days by MTT assay; format: functional, organism-based; settings: Human immunodeficiency virus 1, 3B, MT4, 120 h
[26] = system: MT4; experiment: Cytotoxicity in mock-infected human MT4 assessed as reduction in cell viability incubated for 5 days by MTT assay; format: cell-based; settings: mt4, 120 h
[27] = human, microsomes
Description: Intrinsic clearance in human liver microsomes in presence of NADPH regenerating system by LC-MS/MS analysis

[28] = in vivo; settings: Sprague-Dawley, rat, po, 20 mg/kg
[29] = in vivo; settings: Sprague-Dawley, rat, iv, 2 mg/kg
[30] = in vitro; settings: human, liver microsomes
Description: Stability in human liver microsomes assessed as compound remaining level incubated for 60 mins in presence of NADPH regenerating system by LC-MS/MS analysis

[31] = in vitro; settings: human, liver microsomes; remark: listed apart in the source
Description: Stability in human liver microsomes assessed as compound remaining level incubated for 60 mins in absence of NADPH regenerating system by LC-MS/MS analysis

[32] = system: Human immunodeficiency virus 2; experiment: Antiviral activity against HIV2 ROD infected in human MT4 cells assessed as reduction in virus-induced cell death incubated for 5 days by MTT assay; settings: Human immunodeficiency virus 2, ISOLATE ROD, MT4, 120 h

Sequence of Structural capsid protein (Human immunodeficiency virus 1) (Q76129 as listed by the source): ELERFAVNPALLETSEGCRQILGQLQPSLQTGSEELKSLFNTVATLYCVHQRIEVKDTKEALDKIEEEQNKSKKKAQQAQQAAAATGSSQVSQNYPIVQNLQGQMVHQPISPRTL

Question: Which Stability [1] does the source give for `COc1ccc(N(C)C(=O)[C@H](Cc2ccccc2)NC(=O)CN2CCN(S(=O)(=O)c3ccc(N)cc3)CC2=O)cc1` here?
Answer: 88.5%

Question: And the inhibition [2]?
Answer: Active

Question: What about the pIC50 [3] of the same compound?
Answer: 6.62

Question: What about the pIC50 [4] of the same compound?
Answer: 8.05

Question: And the CC50 [5]?
Answer: > 34500 nM

Question: And the pEC50 [6]?
Answer: 7.05

Question: And the Cmax [7]?
Answer: 83.8 ng/mL

Question: What about the half-life [8] of the same compound?
Answer: 72 min

Question: And the AUC [9]?
Answer: 120.6 ng·h/mL

Question: And the MRT inf [10]?
Answer: 108 min

Question: What about the F [11] of the same compound?
Answer: 23%

Question: What about the half-life [12] of the same compound?
Answer: 60 min

Question: And the Cmax [13]?
Answer: 1280 ng/mL

Question: What about the AUC(0-t) [14] of the same compound?
Answer: 506 ng·h/mL

Question: And the AUC [15]?
Answer: 511.5 ng·h/mL

Question: And the Vd [16]?
Answer: 5.75 L/kg

Question: What about the clearance [17] of the same compound?
Answer: 67.7 mL/min/kg

Question: What about the MRT inf [18] of the same compound?
Answer: 42 min

Question: And the Activity [19]?
Answer: Non-Toxic

Question: What about the Activity [20] of the same compound?
Answer: Non-Toxic

Question: And the Activity [21]?
Answer: Non-Toxic

Question: And the Activity [22]?
Answer: Non-Toxic

Question: And the Activity [23]?
Answer: Non-Toxic

Question: What about the Activity [24] of the same compound?
Answer: Non-Toxic

Question: What about the pEC50 [25] of the same compound?
Answer: 6.68

Question: What about the CC50 [26] of the same compound?
Answer: 179000 nM

Question: What about the CLH [27] of the same compound?
Answer: 342 µL/min/mg

Question: What about the Tmax [28] of the same compound?
Answer: 15 min

Question: What about the Tmax [29] of the same compound?
Answer: 4.98 min

Question: And the remaining at 1 h [30]?
Answer: 0%

Question: And the remaining at 1 h [31]?
Answer: 93.4%

Question: And the pEC50 [32]?
Answer: 7.51
